Experimental data taken from US9850283B2, “Macrocyclic inhibitors of the PD-1/PD-L1 and CD80(B7-1)/PD-L1 protein/protein interactions” (BRISTOL-MYERS SQUIBB COMPANY, priority 2013, dated 2017).
Like-named read-outs stand apart in the source and are kept apart here. Positions of bridges follow the written chain, without caps; N, C: chain ends. Non-standard residues stand in square brackets, D forms with d. Residues, ends and D or L forms follow the SMILES beside them. ξ: configuration not given here. Phe(3,4,5-F3) = N[C@@H](Cc1cc(F)c(F)c(F)c1)C(=O)O; Ala(thiazol-5-yl) = N[C@@H](Cc1cncs1)C(=O)O; Phe(4-CH2NH2) = NCc1ccc(C[C@H](N)C(=O)O)cc1; Ala(4-thiazolyl) = N[C@@H](Cc1cscn1)C(=O)O; Pro(4R-NH2) = N[C@H]1CN[C@H](C(=O)O)C1; d(cisHyp) = O=C(O)[C@H]1C[C@@H](O)CN1; Bta = N[C@@H](Cc1csc2ccccc12)C(=O)O; Hyp = O=C(O)[C@@H]1C[C@@H](O)CN1; NMeF = CN[C@@H](Cc1ccccc1)C(=O)O; AllylGly = C=CC[C@H](N)C(=O)O; NMeNle = CCCC[C@H](NC)C(=O)O; NMeM = CN[C@@H](CCSC)C(=O)O; NMeA = CN[C@@H](C)C(=O)O; dAze = O=C(O)[C@H]1CCN1; ξC = NC(CS)C(=O)O; Sar = CNCC(=O)O

Assays:
[1] = target: T1, LK35.2-hPD-L1 cells / PE-labeled PD-1-Ig (Homo sapiens, UniProt Q9NZQ7); test: LK35.2-hPD-L1 cell binding high-content screening assay; type: cell-based; conditions: cluster symbol, read-out: CBA IC50 cluster
T1 construct: expressed in transfected cells; host or cells: LK35.2 mouse B cell line
Procedure, shortened: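 Fluorescent PD-1-Ig binding to PD-L1-expressing LK35.2 cells, imaged after washing. Conditions: 1 nM PE-PD-1-Ig, 37 °C, 1 h, RPMI with 10% fetal calf serum.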

Human PD-L1/PD-1 = target: T2, Human PD-L1/PD-1 (Homo sapiens, UniProt Q9NZQ7); test: HTRF PD-1-Ig/PD-L1-His binding assay (human PD-L1); conditions: cluster symbol; read-out: HTRF IC50 cluster
T2 construct: made in house; host or cells: HEK293T
Procedure, shortened: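 Soluble PD-1-Ig binding to PD-L1-His measured by HTRF in dPBS with 0.1% BSA and 0.05% Tween-20. Detection used europium cryptate anti-Ig antibody (1 nM final) and APC anti-His antibody (20 nM final) added on top of the binding reaction.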

[2] = cell line of CBA not given (LK35.2-hPD-L1 or 293T-hPD-L1)
[3] = cell binding assay, cell line not given

T1 sequence (Q9NZQ7 19-290): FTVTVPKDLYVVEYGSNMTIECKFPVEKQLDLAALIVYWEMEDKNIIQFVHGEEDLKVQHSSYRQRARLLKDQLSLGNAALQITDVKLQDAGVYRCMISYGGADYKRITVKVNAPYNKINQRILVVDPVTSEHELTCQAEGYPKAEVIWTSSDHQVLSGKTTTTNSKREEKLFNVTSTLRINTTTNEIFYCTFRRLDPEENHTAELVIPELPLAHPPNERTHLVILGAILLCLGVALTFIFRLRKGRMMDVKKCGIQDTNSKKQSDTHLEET
T2 sequence (Q9NZQ7 with tags, fused parts or gaps): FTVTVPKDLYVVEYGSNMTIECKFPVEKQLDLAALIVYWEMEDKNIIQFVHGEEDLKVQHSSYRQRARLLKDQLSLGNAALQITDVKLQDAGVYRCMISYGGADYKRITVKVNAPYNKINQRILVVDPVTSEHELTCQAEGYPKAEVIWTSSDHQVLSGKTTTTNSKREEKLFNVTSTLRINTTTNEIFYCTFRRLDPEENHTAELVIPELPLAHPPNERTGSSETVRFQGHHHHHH

Row | SMILES | IC50 [1, 2] [nM] | IC50 (Human PD-L1/PD-1) [nM] | IC50 [1, 3] [nM]
1 | CCCC[C@H]1C(=O)N(C)[C@@H](CCCC)C(=O)N[C@@H](CCCNC(=N)N)C(=O)N[C@H](C(=O)NCC(N)=O)CSCC(=O)N[C@@H](Cc2ccccc2)C(=O)N(C)[C@@H](C)C(=O)N[C@@H](CCC(N)=O)C(=O)N2CCC[C@H]2C(=O)N[C@@H](Cc2cnc[nH]2)C(=O)N[C@@H](CC(C)C)C(=O)N(C)CC(=O)N[C@@H](Cc2c[nH]c3ccccc23)C(=O)N[C@@H](CO)C(=O)N[C@@H](Cc2c[nH]c3ccccc23)C(=O)N1C [Example 1089] ({CH2CO}-F[NMeA]QPHL[Sar]WSW[NMeNle][NMeNle]RCG-NH2; thioether N-14) | > 74.3 | > 30.5 | 
2 | CCCC[C@H]1C(=O)N(C)CC(=O)N[C@@H](CC(=O)O)C(=O)N[C@@H](C(C)C)C(=O)N(C)[C@@H](Cc2ccccc2)C(=O)N[C@@H](Cc2ccc(O)cc2)C(=O)N(C)CC(=O)N[C@@H](Cc2c[nH]c3ccccc23)C(=O)N[C@@H](Cc2ccc(O)cc2)C(=O)N[C@@H](Cc2ccc(O)cc2)C(=O)N[C@H](C(=O)NCC(N)=O)CSCC(=O)N[C@@H](Cc2ccccc2)C(=O)N(C)[C@@H](Cc2ccccc2)C(=O)N1C [Example 3519] (HELM PEPTIDE1{[O=C(C[*:3])[*:2]].F.[meF].[CCCC[C@@H](C(=O)[*:2])N(C)[*:1]].[Sar].D.V.[meF].Y.[Sar].W.Y.Y.C.G.[am]}$PEPTIDE1,PEPTIDE1,1:R3-14:R3$$$V2.0) |  | 6.76 to 30.3 | 4.78 to 72.9
3 | C=CC[C@@H]1NC(=O)[C@H](Cc2c[nH]c3ccccc23)NC(=O)[C@@H]2C[C@@H](O)CN2C(=O)[C@H](CC(C)C)NC(=O)[C@H](Cc2cnc[nH]2)NC(=O)[C@@H]2CCCN2C(=O)[C@H](CC(N)=O)NC(=O)[C@H](C)N(C)C(=O)[C@H](Cc2ccc(O)cc2)NC(=O)CSC[C@@H](C(=O)NCC(N)=O)NC(=O)[C@H](CC=C)NC(=O)[C@H](CCCC)N(C)C(=O)[C@H](CCCC)N(C)C(=O)[C@H](Cc2c[nH]c3ccccc23)NC1=O [Example 7019] ({CH2CO}-Y[NMeA]NPHL[Hyp]W[AllylGly]W[NMeNle][NMeNle][AllylGly]CG-NH2; thioether N-14) |  | 0.385 to 6.74 | 0.158 to 4.71
4 | CCCC[C@H]1C(=O)N2CCC[C@@H]2C(=O)N[C@@H](CC(=O)O)C(=O)N[C@@H](C(C)C)C(=O)N(C)[C@@H](Cc2ccccc2)C(=O)N[C@@H](Cc2ccc(O)cc2)C(=O)N(C)CC(=O)N[C@@H](Cc2c[nH]c3ccccc23)C(=O)N[C@@H](Cc2ccc(O)cc2)C(=O)N[C@@H](CC(C)C)C(=O)N[C@H](C(=O)NCC(N)=O)CSCC(=O)N[C@@H](Cc2ccccc2)C(=O)N(C)[C@@H](Cc2ccccc2)C(=O)N1C [Example 3560] (HELM PEPTIDE1{[O=C(C[*:3])[*:2]].F.[meF].[CCCC[C@@H](C(=O)[*:2])N(C)[*:1]].[dP].D.V.[meF].Y.[Sar].W.Y.L.C.G.[am]}$PEPTIDE1,PEPTIDE1,1:R3-14:R3$$$V2.0) |  | 6.76 to 30.3 | 0.158 to 4.71
5 | CCCC[C@H]1C(=O)N(C)[C@@H](CCCC)C(=O)N[C@@H](CCCNC(=N)N)C(=O)NC(C(=O)NCC(N)=O)CSCC(=O)N[C@@H](Cc2ccc(O)cc2)C(=O)N(C)[C@@H](C)C(=O)N[C@@H](CC(N)=O)C(=O)N2CCC[C@H]2C(=O)N[C@@H](Cc2cnc[nH]2)C(=O)N[C@@H](CO)C(=O)N2CCC[C@H]2C(=O)N[C@@H](Cc2c[nH]c3ccccc23)C(=O)N[C@@H](CO)C(=O)N[C@@H](Cc2c[nH]c3ccccc23)C(=O)N1C (stereo partly shown) [Example 9067] ({CH2CO}-Y[NMeA]NPHSPWSW[NMeNle][NMeNle]R[ξC]G-NH2; thioether N-14) |  | 0.385 to 6.74 | 0.158 to 4.71
6 | CCCC[C@H]1C(=O)N(C)[C@@H](CCCC)C(=O)N[C@@H](CCCNC(=N)N)C(=O)N[C@H](C(=O)NCC(N)=O)CSCC(=O)N[C@@H](Cc2ccccc2)C(=O)N(C)[C@@H](C)C(=O)N[C@@H](CC(N)=O)C(=O)N2CCC[C@H]2C(=O)N[C@@H](Cc2cnc[nH]2)C(=O)N[C@@H](CC(C)C)C(=O)N[C@@H](CCC(N)=O)C(=O)N[C@@H](Cc2c[nH]c3ccccc23)C(=O)N[C@@H](CO)C(=O)N[C@@H](Cc2c[nH]c3ccccc23)C(=O)N1C [Example 1074] ({CH2CO}-F[NMeA]NPHLQWSW[NMeNle][NMeNle]RCG-NH2; thioether N-14) | > 74.3 | > 30.5 | 
7 | CCCC[C@H]1C(=O)N(C)[C@@H](CCCC)C(=O)N[C@@H](CCCNC(=N)N)C(=O)N[C@H](C(=O)NCC(N)=O)CSCC(=O)N[C@@H](Cc2cscn2)C(=O)N(C)[C@@H](C)C(=O)N[C@@H](CC(N)=O)C(=O)N2CCC[C@H]2C(=O)N[C@@H](Cc2cnc[nH]2)C(=O)N[C@@H](CC(C)C)C(=O)N(C)CC(=O)N[C@@H](Cc2c[nH]c3ccccc23)C(=O)N[C@@H](CO)C(=O)N[C@@H](Cc2c[nH]c3ccccc23)C(=O)N1C [Example 1096] ({CH2CO}-[Ala(4-thiazolyl)][NMeA]NPHL[Sar]WSW[NMeNle][NMeNle]RCG-NH2; thioether N-14) | > 74.3 | > 30.5 | 
8 | CCCC[C@H]1C(=O)N2C[C@H](O)C[C@@H]2C(=O)N2C[C@H](N)C[C@H]2C(=O)N[C@@H](C(C)C)C(=O)N(C)[C@@H](Cc2ccccc2)C(=O)N[C@@H](Cc2ccc(O)cc2)C(=O)N2CC[C@@H]2C(=O)N[C@@H](Cc2c[nH]c3ccccc23)C(=O)N[C@@H](Cc2ccc(O)cc2)C(=O)N[C@@H](CC(C)C)C(=O)N[C@H](C(=O)NCC(N)=O)CSCC(=O)N[C@@H](Cc2cc(F)c(F)c(F)c2)C(=O)N(C)[C@@H](Cc2ccccc2)C(=O)N1C [Example 3195] ({CH2CO}-[Phe(3,4,5-F3)][NMeF][NMeNle][d(cisHyp)][Pro(4R-NH2)]V[NMeF]Y[dAze]WYLCG-NH2; thioether N-13) | 0.158 to 4.71 | 0.385 to 6.74 | 
9 | CCCC[C@H]1C(=O)N(C)CC(=O)N[C@@H](CC(=O)O)C(=O)N[C@@H](C(C)C)C(=O)N(C)[C@@H](Cc2ccccc2)C(=O)N[C@@H](Cc2ccc(O)cc2)C(=O)N(C)CC(=O)N[C@@H](Cc2c[nH]c3ccccc23)C(=O)N[C@@H](Cc2ccc(CN)cc2)C(=O)N[C@@H](CC(C)C)C(=O)N[C@H](C(=O)NCC(N)=O)CSCC(=O)N[C@@H](Cc2ccccc2)C(=O)N(C)[C@@H](Cc2ccccc2)C(=O)N1C [Example 3514] ({CH2CO}-F[NMeF][NMeNle][Sar]DV[NMeF]Y[Sar]W[Phe(4-CH2NH2)]LCG-NH2; thioether N-13) |  | 6.76 to 30.3 | 4.78 to 72.9
10 | CCCC[C@H]1C(=O)N(C)[C@@H](CCCC)C(=O)N[C@@H](CCCNC(=N)N)C(=O)N[C@H](C(=O)NCC(N)=O)CSCC(=O)N[C@@H](Cc2ccccc2)C(=O)N(C)[C@@H](C)C(=O)N[C@@H](CC(N)=O)C(=O)N2CCC[C@H]2C(=O)N[C@@H](Cc2cncs2)C(=O)N[C@@H](CC(C)C)C(=O)N(C)CC(=O)N[C@@H](Cc2c[nH]c3ccccc23)C(=O)N[C@@H](CO)C(=O)N[C@@H](Cc2c[nH]c3ccccc23)C(=O)N1C [Example 1067] ({CH2CO}-F[NMeA]NP[Ala(thiazol-5-yl)]L[Sar]WSW[NMeNle][NMeNle]RCG-NH2; thioether N-14) | > 74.3 | > 30.5 | 
11 | CCCC[C@H]1C(=O)N[C@@H](CCCNC(=N)N)C(=O)NC(C(=O)NCC(N)=O)CSCC(=O)N[C@@H](Cc2ccc(O)cc2)C(=O)N(C)[C@@H](C)C(=O)N[C@@H](CC(N)=O)C(=O)N2CCC[C@H]2C(=O)N[C@@H](Cc2cnc[nH]2)C(=O)N[C@@H](CO)C(=O)N2C[C@H](O)C[C@H]2C(=O)N[C@@H](Cc2c[nH]c3ccccc23)C(=O)N[C@@H](CO)C(=O)N[C@@H](Cc2csc3ccccc23)C(=O)N(C)[C@@H](CCSC)C(=O)N1C (stereo partly shown) [Example 9114] ({CH2CO}-Y[NMeA]NPHS[Hyp]WS[Bta][NMeM][NMeNle]R[ξC]G-NH2; thioether N-14) |  | 6.76 to 30.3 | 4.78 to 72.9
